Measured values as given in patent publication US20240368153A1, “Aminopyridine-based MTA-Cooperative PRMT5 Inhibitors” (Mirati Therapeutics, Inc., priority 2021, published 2024).

Legend:
PRMT5/MEP50 complex [1] = target: T1, PRMT5/MEP50 complex (Homo sapiens (Human), UniProt O14744); assay: PRMT5:MEP50 HotSpot Assay; type: biochemical; details: read-out: IC50 + 2 μM MTA, full-length histone H2A, presence of 2 μM MTA
Experimental: The assay uses recombinant full-length histone H2A as the PRMT5 substrate. Enzymatic transfer of the tritiated methyl group from S-adenosyl-L-[methyl-3H]methionine to the histone H2A protein generated a radiolabeled histone […] in a scintillation counter to determine the activity of PRMT5 enzyme in the presence and absence of compound. […] Briefly, compounds of the present invention were solubilized in 100% DMSO at a highest concentration of 10 mM. […] Control samples lacking compound, PRMT5/MEP50 complex or various reaction components also were prepared and processed in parallel with compound test samples. SAH was used as a positive control for assay validation. To measure PRMT5 inhibitory activity. 1 nM PRMT5/MEP50 complex (Reaction Biology Corporation) was preincubated with test compound in assay buffer containing 5 μM full-length histone H2A for 20 min at room temperature. The enzymatic reaction was initiated by adding 1 μM tritiated S-adenosyl methionine (final concentration) and the reaction was allowed to proceed for 60 min. The reaction was stopped and transferred to filter paper for detection. The amount of tritiated H2A in each sample was determined using a scintillation counter.

[2] = target: recombinant human dual expressed Avi PRMT5/His-MEP50 protein (Homo sapiens (Human), UniProt O14744); assay: HTRF binding assay in presence of MTA; details: 30 μM MTA
Experimental: The PRMT5 binding activity of compounds of the present invention was determined using an HTRF binding assay or SPR assay.
A recombinant human dual expressed Avi PRMT5/His-MEP50) protein (corresponding to amino acids for PRMT5 2-637, and 2-342 for MEP50 expressed in baculovirus) was incubated with target fragments in final buffer (25 mM ADA pH 7.2, 30 μM MTA, 1 mM TCEP, 50 mM NaCl, 0.002% Tween, 5 nM proprietary Tracer binding compound prepared in-house), overnight at 2-8° C. After overnight incubation the binding is monitored after the addition of 0.5 nM Anti-His-Tb (Cisbio) after 1 hr incubation at RT (˜20-24 hrs total binding time). The HTRF signal was measured using a Clariostar reader (BMG) excitation filter (Ex Tr), dichroic filter (LP TP) and emission filters (F 665-10 and F 620-10) manufacturer's instructions. The HTRF ratio was calculated using the formula: [emission 665/emission 620]*10000.

[3] = target: PRMT5•MTA (biotinylated PRMT5-MEP50) (Homo sapiens (Human), UniProt O14744); assay: SPR binding assay, MTA running buffer; details: 20 μM MTA running buffer
Experimental: (§1) SPR screening was performed in MTA running buffer (25 mM Bicine pH 7.6, 100 mM NaCl, 1 mM TCEP, 20 μM MTA, 0.05% Tween-20 and 2% DMSO). The biotinylated PRMT5-MEP50 surface was equilibrated with MTA running buffer for 12 hours prior to the start. […] Subsequently, compound titration was repeated in SAM-running buffer (25 mM Bicine pH 7.6, 100 mM NaCl, 1 mM TCEP, 20 μM SAM, 0.05% Tween-20, and 2% DMSO). […] After double referencing, the steady-state response was extracted for each fragment concentration and was fit to the Langmuir isotherm equation to determine the equilibrium dissociation constant (KD).

[4] = target: PRMT5•SAM (biotinylated PRMT5-MEP50) (Homo sapiens (Human), UniProt O14744); assay: SPR binding assay, SAM running buffer; details: 20 μM SAM running buffer
Experimental: as §1

PRMT5/MEP50 complex [5] = target: T1, PRMT5/MEP50 complex; assay: PRMT5:MEP50 FlashPlate Assay; type: biochemical
Experimental: The PRMT5 inhibitory activity of compounds of the present invention was determined using a PRMT5:MEP50 FlashPlate Assay (Reaction Biology Corporation).
The assay uses purified human, PRMT5 enzyme to convert S-adenosyl-L-[methyl-^3H]methionine plus histone H4 L-arginine to S-adenosyl-L-homocysteine plus histone H4 [methyl-^3H]-L-arginine. The assay was carried out using Streptavidin-coated FlashPlates (Perkin Elmer), which contained a scintillant embedded in the plastic of the plate. The histone H4 peptide substrate was conjugated with biotin, which binds to the streptavidin-coated well of the plate, placing the H4 peptide in close proximity to the side well and the scintillant. The transfer of the tritiated methyl group from S-adenosyl-L-[methyl-^3H]methionine to the bound histone H4 peptide generated a radiolabeled histone H4, which was quantitated by measuring in a scintillation counter to determine the activity of PRMT5 enzyme in the presence and absence of compound. […] Briefly, compounds of the present invention were solubilized in 100% DMSO at a highest concentration of 10 mM. For IC, determinations, the initial starting concentration for the serial dilutions of each compound was 50 μM. Control samples lacking compound, PRMT5/MEP50 complex or various reaction components also were prepared and processed in parallel with compound test samples. SAH was used as a positive control for assay validation. To measure PRMT5 inhibitory activity, 3 nM PRMT5/MEP50 complex (Reaction Biology Corporation) was preincubated with test compound in assay buffer containing 40 nM histone H4 peptide (amino acids 1-15)-Biotin conjugate for 20 min at room temperature. The enzymatic reaction was initiated by adding 1 μM tritiated S-adenosyl methionine (final concentration) and the reaction is allowed to proceed for 20 min. The reaction was stopped and the amount of bound, tritiated H4 peptide in each sample was determined using a scintillation counter. The IC50 value for each compound was calculated from each 10-point dose-response curve for samples plus and minus MTA using GraphPad Prism software and the results for exemplary compounds of Formula (I) is shown in Table 9a.

[6] = histone H4 peptide, absence of MTA, read-out: IC50
[7] = read-out: IC50 + 2 μM MTA, histone H4 peptide, presence of 2 μM MTA

PRMT5•MTA (biotinylated PRMT5-MEP50), sequence (O14744 whole entry, the tested form may be a part): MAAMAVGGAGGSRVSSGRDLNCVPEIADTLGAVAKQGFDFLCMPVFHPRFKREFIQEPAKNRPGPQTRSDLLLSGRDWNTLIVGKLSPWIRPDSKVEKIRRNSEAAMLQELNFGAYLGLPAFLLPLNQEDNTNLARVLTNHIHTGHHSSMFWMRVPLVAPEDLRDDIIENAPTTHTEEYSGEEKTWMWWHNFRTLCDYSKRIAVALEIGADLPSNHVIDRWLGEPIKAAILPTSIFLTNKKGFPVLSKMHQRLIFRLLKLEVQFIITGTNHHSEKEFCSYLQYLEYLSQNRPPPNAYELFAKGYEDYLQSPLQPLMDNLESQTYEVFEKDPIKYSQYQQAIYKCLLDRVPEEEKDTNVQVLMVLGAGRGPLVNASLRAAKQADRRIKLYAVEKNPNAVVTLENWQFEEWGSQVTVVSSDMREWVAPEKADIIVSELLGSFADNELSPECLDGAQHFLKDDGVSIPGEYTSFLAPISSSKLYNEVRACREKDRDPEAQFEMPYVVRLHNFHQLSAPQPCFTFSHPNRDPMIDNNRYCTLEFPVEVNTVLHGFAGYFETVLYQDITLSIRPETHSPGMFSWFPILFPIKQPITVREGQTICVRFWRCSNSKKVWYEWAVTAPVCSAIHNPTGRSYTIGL
PRMT5•MTA (biotinylated PRMT5-MEP50), sequence (Q9BQA1 whole entry partner, the tested form may be a part): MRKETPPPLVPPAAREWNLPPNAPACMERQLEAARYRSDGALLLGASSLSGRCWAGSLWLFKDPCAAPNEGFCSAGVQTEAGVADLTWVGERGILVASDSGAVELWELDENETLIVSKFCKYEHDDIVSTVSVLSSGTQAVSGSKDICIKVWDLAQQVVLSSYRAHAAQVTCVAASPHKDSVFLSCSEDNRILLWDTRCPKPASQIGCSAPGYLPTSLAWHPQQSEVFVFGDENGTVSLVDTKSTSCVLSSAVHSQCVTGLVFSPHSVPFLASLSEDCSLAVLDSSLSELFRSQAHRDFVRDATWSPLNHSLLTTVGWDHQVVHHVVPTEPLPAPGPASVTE
PRMT5•SAM (biotinylated PRMT5-MEP50), sequence (O14744 whole entry): as the sequence (O14744 whole entry, the tested form may be a part) above
PRMT5•SAM (biotinylated PRMT5-MEP50), sequence (Q9BQA1 whole entry partner): as the sequence (Q9BQA1 whole entry partner, the tested form may be a part) above
T1 sequence (O14744 whole entry): as the sequence (O14744 whole entry, the tested form may be a part) above
T1 sequence (Q9BQA1 whole entry partner): as the sequence (Q9BQA1 whole entry partner, the tested form may be a part) above
recombinant human dual expressed Avi PRMT5/His-MEP50 protein, sequence (O14744 2-637): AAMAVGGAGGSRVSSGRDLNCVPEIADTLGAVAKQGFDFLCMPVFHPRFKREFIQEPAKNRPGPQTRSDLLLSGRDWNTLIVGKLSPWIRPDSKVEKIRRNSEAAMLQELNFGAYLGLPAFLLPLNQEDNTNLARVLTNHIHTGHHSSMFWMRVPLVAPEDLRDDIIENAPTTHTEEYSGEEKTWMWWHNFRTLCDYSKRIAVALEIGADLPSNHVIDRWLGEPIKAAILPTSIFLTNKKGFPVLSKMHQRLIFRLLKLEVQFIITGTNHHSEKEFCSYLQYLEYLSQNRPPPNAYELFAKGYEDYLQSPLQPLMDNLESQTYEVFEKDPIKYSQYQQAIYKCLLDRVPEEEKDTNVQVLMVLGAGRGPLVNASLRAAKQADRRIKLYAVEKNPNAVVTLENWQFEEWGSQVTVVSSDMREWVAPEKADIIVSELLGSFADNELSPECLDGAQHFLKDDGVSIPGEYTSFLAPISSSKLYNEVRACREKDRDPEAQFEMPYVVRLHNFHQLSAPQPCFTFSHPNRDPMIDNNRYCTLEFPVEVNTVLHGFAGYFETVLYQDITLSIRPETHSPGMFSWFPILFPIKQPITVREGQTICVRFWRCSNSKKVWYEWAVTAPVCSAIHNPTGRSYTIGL
recombinant human dual expressed Avi PRMT5/His-MEP50 protein, sequence (Q9BQA1 2-342 partner): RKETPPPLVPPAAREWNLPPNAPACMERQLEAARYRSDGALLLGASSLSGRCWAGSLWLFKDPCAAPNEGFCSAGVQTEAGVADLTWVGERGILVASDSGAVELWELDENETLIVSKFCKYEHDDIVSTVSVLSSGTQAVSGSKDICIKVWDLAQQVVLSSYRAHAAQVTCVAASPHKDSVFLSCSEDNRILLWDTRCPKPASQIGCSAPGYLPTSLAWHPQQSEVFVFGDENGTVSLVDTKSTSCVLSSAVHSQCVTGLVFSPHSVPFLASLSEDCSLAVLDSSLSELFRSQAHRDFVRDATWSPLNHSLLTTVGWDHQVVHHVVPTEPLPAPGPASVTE

SMILES | IC50 (PRMT5/MEP50 complex [1]) | IC50 [2] | Kd [3] | Kd [4] | IC50 (PRMT5/MEP50 complex [5]; [6]) | IC50 (PRMT5/MEP50 complex [5]; [7]) | IC50 (PRMT5/MEP50 complex [5]; IC50 + 2 μM MTA, histone H4 peptide, presence of 2 μM MTA)
Cc1cc2[nH]c(C(=O)N(Cc3ccc(C(F)(F)F)cn3)C3CCCc4nccnc43)cc2nc1N (stereo in doubt) [Example 10-4, (R)-5-amino-6-methyl-N-(5,6,7,8-tetrahydroquinoxalin-5-yl)-N-((5-(trifluoromethyl)pyridin-2-yl)methyl)-1H-pyrrolo[3,2-b]pyridine-2-carboxamide] | 379 nM | – | – | – | – | – | –
CC(=O)N(Cc1cnc2c(C)cc(N)nc2c1)c1ccc2ccccc2c1C#N [Example 7-5, N-[(6-amino-8-methyl-1,5-naphthyridin-3-yl)methyl]-N-(1-cyano-2-naphthyl)acetamide] | 1340 nM | 3 nM | 2 nM | 2 nM | 6.46 µM | 0.0203 µM | –
Cc1cc2[nH]c(C(=O)N(Cc3ccc(C(F)(F)F)cn3)[C@H]3CCCc4nccnc43)cc2nc1N [Example 10-3, (S)-5-amino-6-methyl-N-(5,6,7,8-tetrahydroquinoxalin-5-yl)-N-((5-(trifluoromethyl)pyridin-2-yl)methyl)-1H-pyrrolo[3,2-b]pyridine-2-carboxamide] | 10300 nM | – | – | – | – | – | –
Cc1cc2ncc(C(=O)N(Cc3ccc(C(F)(F)F)cn3)[C@H]3CCCc4nccnc43)cc2nc1N [Example 10-5, (S)-6-amino-7-methyl-N-(5,6,7,8-tetrahydroquinoxalin-5-yl)-N-((5-(trifluoromethyl)pyridin-2-yl)methyl)-1,5-naphthyridine-3-carboxamide] | 14700 nM | – | – | – | – | – | –
Cc1cc2ncc(C(=O)N(Cc3ccc(C(F)(F)F)cn3)[C@@H]3CCCc4nccnc43)cc2nc1N [Example 10-6, (R)-6-amino-7-methyl-N-(5,6,7,8-tetrahydroquinoxalin-5-yl)-N-((5-(trifluoromethyl)pyridin-2-yl)methyl)-1,5-naphthyridine-3-carboxamide] | 925 nM | – | – | – | – | – | –
Cc1cc2ncc(C(=O)N(Cc3ccc(Br)cn3)[C@@H](C)c3ncccn3)cc2nc1N [Example 10-7, (S)-6-amino-N-((5-bromopyridin-2-yl)methyl)-7-methyl-N-(1-(pyrimidin-2-yl)ethyl)-1,5-naphthyridine-3-carboxamide] | 16200 nM | – | – | – | – | – | –
Cc1cc2ncc(C(=O)N(Cc3ccc(Br)cn3)[C@H](C)c3ncccn3)cc2nc1N [Example 10-8, (R)-6-amino-N-((5-bromopyridin-2-yl)methyl)-7-methyl-N-(1-(pyrimidin-2-yl)ethyl)-1,5-naphthyridine-3-carboxamide] | 60.2 nM | – | – | – | – | – | –
Cc1cc(N)nc2cc(C(=O)N(Cc3ccc(Br)cn3)[C@@H](C)c3ncccn3)cnc12 [Example 10-11, 6-amino-N-[(5-bromo-2-pyridyl)methyl]-8-methyl-N-[(1S)-1-pyrimidin-2-ylethyl]-1,5-naphthyridine-3-carboxamide] | 10400 nM | – | – | – | – | – | –
Nc1nc2cc(NC(=O)c3ccccc3F)[nH]c2cc1Br [Example 12-4, N-(5-amino-6-bromo-1H-pyrrolo[3,2-b]pyridin-2-yl)-2-fluoro-benzamide] | – | 1620 nM | 1890 nM | 4950 nM | 100 µM | 48.9 µM | –
Cc1cc2[nH]c(-n3cncn3)cc2nc1N [Example 13-1, 6-methyl-2-(1,2,4-triazol-1-yl)-1H-pyrrolo[3,2-b]pyridin-5-amine] | – | 1280 nM | 510 nM | 1180 nM | > 300 µM | 176 µM | –
Cc1cc2[nH]c(-n3cnc(Br)c3)cc2nc1N [Example 13-3, 2-(4-bromoimidazol-1-yl)-6-methyl-1H-pyrrolo[3,2-b]pyridin-5-amine] | – | 2360 nM | 680 nM | 2010 nM | > 300 µM | – | 131 µM
Cc1cc2[nH]c(N3CC(=O)N(C)C3=O)cc2nc1N [Example 13-4, 1-(5-amino-6-methyl-1H-pyrrolo[3,2-b]pyridin-2-yl)-3-methyl-imidazolidine-2,4-dione] | – | 50600 nM | 10700 nM | 30900 nM | > 300 µM | > 300 µM | –
Cc1cc2[nH]c(CN3C(=O)c4ccccc4C3=O)cc2nc1N [Example 14-1, 2-((5-amino-6-methyl-1H-pyrrolo[3,2-b]pyridin-2-yl)methyl)isoindoline-1,3-dione] | 626 nM | 7 nM | 1 nM | 6 nM | 10.1 µM | 0.0121 µM | –
CC(=O)NCc1cc2nc(N)c(C)cc2[nH]1 [Example 14-3, N-((5-amino-6-methyl-1H-pyrrolo[3,2-b]pyridin-2-yl)methyl)acetamide] | – | 102 nM | 12 nM | 38 nM | 271 µM | 0.138 µM | –
CC(=O)N(C)Cc1cc2nc(N)c(C)cc2[nH]1 [Example 14-4, N-((5-amino-6-methyl-1H-pyrrolo[3,2-b]pyridin-2-yl)methyl)-N-methylacetamide] | – | 124 nM | 17 nM | 80 nM | 170 µM | 1.24 µM | –
Cc1cc2[nH]c(C(C#N)N3C(=O)c4ccccc4C3=O)cc2nc1N (stereo not drawn) [Example 14-5, 2-(5-amino-6-methyl-1H-pyrrolo[3,2-b]pyridin-2-yl)-2-(1,3-dioxoisoindolin-2-yl)acetonitrile] | – | 37 nM | 203 nM | 727 nM | 245 µM | 4.26 µM | –
Cc1cc2[nH]c(CN3CCc4ccccc4C3=O)cc2nc1N [Example 14-6, 2-[(5-amino-6-methyl-1H-pyrrolo[3,2-b]pyridin-2-yl)methyl]-3,4-dihydroisoquinolin-1-one] | – | 7 nM | 1 nM | 6 nM | 43.2 µM | 0.504 µM | –
Cc1cc2[nH]c(Cn3ccc4ccccc4c3=O)cc2nc1N [Example 14-7, 2-[(5-amino-6-methyl-1H-pyrrolo[3,2-b]pyridin-2-yl)methyl]isoquinolin-1-one] | – | 8 nM | 2 nM | 6 nM | 36.7 µM | 0.474 µM | –
Cc1cc2sc(CNC(=O)c3ccccc3)cc2nc1N [Example 16-1, N-[(5-amino-6-methyl-thieno[3,2-b]pyridin-2-yl)methyl]benzamide] | – | 163 nM | 72 nM | 1350 nM | > 300 µM | 18.2 µM | –
